Assay results taken from US7772241B2, “Variolin derivatives and their use as antitumor agents” (Pharma Mar S.A., priority 2001, dated 2010).
Read-outs that look alike come from different tables or passages of the source.

Columns and labels:
[1] = test system: PANC-1; test: Inhibition of cells growth by colorimetric (SRB) assay, PANC-1
Procedure, shortened: (§1)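 Read-out is sulforhodamine B protein stain (OD 490 nm) after cold TCA fixation, following 48 h continuous exposure to samples spanning 10 to 10^−8 μg/ml.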

[2] = test system: HT-29; test: Inhibition of cells growth by colorimetric (SRB) assay, HT-29
Procedure, shortened: as §1

[3] = test system: LoVo; test: Inhibition of cells growth by colorimetric (SRB) assay, LoVo; conditions: for CC50: read-out: LC50 LOVO
Procedure, shortened: as §1

[4] = test system: LoVo-Dox; test: Inhibition of cells growth by colorimetric (SRB) assay, LoVo-Dox
Procedure, shortened: as §1

[5] = test system: SK-MEL-28; test: Inhibition of cells growth by colorimetric (SRB) assay, SK-MEL-28; conditions: SRB assay, 48 hours exposure; for GI50: read-out: GI50 MEL-28; for CC50: read-out: LC50 MEL-28
Procedure, shortened: as §1

[6] = test system: IGROV-1; test: Inhibition of cells growth by colorimetric (SRB) assay, IGROV-1; conditions: for CC50: read-out: LC50 IGROV
Procedure, shortened: as §1

[7] = test system: K-562; test: Inhibition of cells growth by colorimetric (SRB) assay, K-562
Procedure, shortened: as §1

[8] = test system: IGROV-ET; test: Inhibition of cells growth by colorimetric (SRB) assay, IGROV-ET
Procedure, shortened: as §1

[9] = test system: A-549; test: Inhibition of cells growth by colorimetric (SRB) assay, A-549
Procedure, shortened: as §1

[10] = test system: SK-OV-3; test: Inhibition of cells growth by colorimetric (SRB) assay, SK-OV-3
Procedure, shortened: as §1

[11] = test system: DU-145; test: Inhibition of cells growth by colorimetric (SRB) assay, DU-145; conditions: for CC50: read-out: LC50 DU-145
Procedure, shortened: as §1

[12] = test system: SK-BR-3; test: Inhibition of cells growth by colorimetric (SRB) assay, SK-BR-3
Text: The finality of these assays is to interrupt the growth of a “in vitro” tumor cell culture by means a continued exhibition of the cells to the sample to be testing.
This form of the assay employs 96 well cell culture microplates of 9 mm diameter (Faircloth, 1988; Mosmann, 1983). Most of the cell lines are obtained from American Type Culture Collection (ATCC) derived from different human cancer types.
Cells are maintained in RPMI 1640 10% FBS, supplemented with 0.1 g/l penicillin and 0.1 g/l streptomycin sulphate and then incubated at 37° C., 5% CO2 and 98% humidity. For the experiments, cells were harvested from subconfluent cultures using trypsin and resuspended in fresh medium before plating.
Cells are seeded in 96 well microtiter plates, at 5×10^3 cells per well in aliquots of 195 μl medium, and they are allowed to attach to the plate surface by growing in drug free medium for 18 hours. Afterward, samples are added in aliquots of 5 μl in a ranging from 10 to 10^−8 μg/ml, dissolved in DMSO/EtOH/PBS (0.5:0.5:99). After 48 hours exposure, the antitumor effect are measured by the SRB methodology: cells are fixed by adding 50 μl of cold 50% (wt/vol) trichloroacetic acid (TCA) and incubating for 60 minutes at 4° C. Plates are washed with deionized water and dried. One hundred μl of SRB solution (0.4% wt/vol in 1% acetic acid) is added to each microtiter well and incubated for 10 minutes at room temperature. Unbound SRB is removed by washing with 1% acetic acid. Plates are air dried and bound stain is solubilized with Tris buffer. Optical densities are read on a automated spectrophotometric plate reader at a single wavelength of 490 nm.
The values for mean +/−SD of data from triplicate wells are calculated. Some parameters for cellular responses can be calculated: GI=growth inhibition, TGI=total growth inhibition (cytostatic effect) and LC=cell killing (cytotoxic effect).

Nc1nccc(-c2c3c(N)ccnc3n3c(N)nccc23)n1 [Compound 90]
GI50 ([1]; Homo sapiens, PANC-1, 48 h, read-out: GI50 PANC-1, SRB assay, 48 hours exposure): 1180 nM | CC50 ([1]; Homo sapiens, PANC-1, 48 h, read-out: LC50 PANC-1, SRB assay, 48 hours exposure): 15800 nM | TGI PANC-1 ([1]; SRB assay, 48 hours exposure): 4.98E−06 | GI50 ([2]; Homo sapiens, HT-29, 48 h, read-out: GI50 HT-29, SRB assay, 48 hours exposure): 1270 nM | CC50 ([2]; Homo sapiens, HT-29, 48 h, read-out: LC50 HT-29, SRB assay, 48 hours exposure): 15800 nM | TGI HT-29 ([2]; SRB assay, 48 hours exposure): 1.44E−05 | GI50 ([3]; Homo sapiens, LoVo, 48 h, read-out: GI50 LOVO, SRB assay, 48 hours exposure): 276 nM | TGI LOVO ([3]; SRB assay, 48 hours exposure): 6.54E−07 | CC50 ([3]; SRB assay, 48 hours exposure): 1560 nM | GI50 ([4]; Homo sapiens, 48 h, read-out: GI50 LOVO-DOX, SRB assay, 48 hours exposure): 597 nM | CC50 ([4]; Homo sapiens, 48 h, read-out: LC50 LOVO-DOX, SRB assay, 48 hours exposure): 8070 nM | TGI LOVO-DOX ([4]; SRB assay, 48 hours exposure): 1.27E−06 | TGI MEL-28 [5]: 9.68E−07 | GI50 [5]: 397 nM | CC50 [5]: 3450 nM | GI50 ([6]; Homo sapiens, IGROV-1, 48 h, read-out: GI50 IGROV, SRB assay, 48 hours exposure): 339 nM | TGI IGROV ([6]; SRB assay, 48 hours exposure): 6.92E−07 | CC50 ([6]; SRB assay, 48 hours exposure): 1410 nM | GI50 ([7]; Homo sapiens, K562, 48 h, read-out: GI50 K-562, SRB assay, 48 hours exposure): 1230 nM | CC50 ([7]; Homo sapiens, K562, 48 h, read-out: LC50 K-562, SRB assay, 48 hours exposure): 15800 nM | TGI K-562 ([7]; SRB assay, 48 hours exposure): 5.28E−06 | GI50 ([8]; Homo sapiens, 48 h, read-out: GI50 IGROV-ET, SRB assay, 48 hours exposure): 1920 nM | CC50 ([8]; Homo sapiens, 48 h, read-out: LC50 IGROV-ET, SRB assay, 48 hours exposure): 15800 nM | TGI IGROV-ET ([8]; SRB assay, 48 hours exposure): 6.95E−06 | GI50 ([9]; Homo sapiens, A549, 48 h, read-out: GI50 A-549, SRB assay, 48 hours exposure): 887 nM | CC50 ([9]; Homo sapiens, A549, 48 h, read-out: LC50 A-549, SRB assay, 48 hours exposure): 7050 nM | TGI A-549 ([9]; SRB assay, 48 hours exposure): 2.05E−06 | GI50 ([10]; Homo sapiens, SK-OV-3, 48 h, read-out: GI50 SKOV-3, SRB assay, 48 hours exposure): 465 nM | CC50 ([10]; Homo sapiens, SK-OV-3, 48 h, read-out: LC50 SKOV-3, SRB assay, 48 hours exposure): 13900 nM | TGI SKOV-3 ([10]; SRB assay, 48 hours exposure): 1.15E−06 | GI50 ([11]; Homo sapiens, DU-145, 48 h, read-out: GI50 DU-145, SRB assay, 48 hours exposure): 355 nM | TGI DU-145 ([11]; SRB assay, 48 hours exposure): 1.03E−06 | CC50 ([11]; SRB assay, 48 hours exposure): 10700 nM | GI50 ([12]; Homo sapiens, SK-BR-3, 48 h, read-out: GI50 SK-BR-3, SRB assay, 48 hours exposure): 311 nM | CC50 ([12]; Homo sapiens, SK-BR-3, 48 h, read-out: LC50 SK-BR-3, SRB assay, 48 hours exposure): 1420 nM | TGI SK-BR-3 ([12]; SRB assay, 48 hours exposure): 6.64E−07

Cl.Nc1nccc(-c2c3c(N)ccnc3n3c(N)nccc23)n1 [Compound 91]
TGI PANC-1 ([1]; SRB assay, 48 hours exposure): 2.44E−06 | GI50 ([1]; read-out: GI50 PANC-1, SRB assay, 48 hours exposure): 896 nM | CC50 ([1]; read-out: LC50 PANC-1, SRB assay, 48 hours exposure): 16200 nM | TGI HT-29 ([2]; SRB assay, 48 hours exposure): 2.49E−06 | GI50 ([2]; read-out: GI50 HT-29, SRB assay, 48 hours exposure): 1340 nM | CC50 ([2]; read-out: LC50 HT-29, SRB assay, 48 hours exposure): 24900 nM | TGI LOVO ([3]; SRB assay, 48 hours exposure): 8.49E−07 | GI50 ([3]; read-out: GI50 LOVO, SRB assay, 48 hours exposure): 201 nM | CC50 ([3]; SRB assay, 48 hours exposure): 6820 nM | TGI LOVO-DOX ([4]; SRB assay, 48 hours exposure): 1.86E−06 | GI50 ([4]; read-out: GI50 LOVO-DOX, SRB assay, 48 hours exposure): 774 nM | CC50 ([4]; read-out: LC50 LOVO-DOX, SRB assay, 48 hours exposure): 7470 nM | TGI MEL-28 [5]: 5.10E−07 | GI50 [5]: 180 nM | CC50 [5]: 1250 nM | TGI IGROV ([6]; SRB assay, 48 hours exposure): 9.73E−07 | GI50 ([6]; read-out: GI50 IGROV, SRB assay, 48 hours exposure): 241 nM | CC50 ([6]; SRB assay, 48 hours exposure): 6020 nM | TGI K-562 ([7]; SRB assay, 48 hours exposure): 3.78E−06 | GI50 ([7]; read-out: GI50 K-562, SRB assay, 48 hours exposure): 1320 nM | CC50 ([7]; read-out: LC50 K-562, SRB assay, 48 hours exposure): 24900 nM | TGI IGROV-ET ([8]; SRB assay, 48 hours exposure): 1.98E−06 | GI50 ([8]; read-out: GI50 IGROV-ET, SRB assay, 48 hours exposure): 1160 nM | CC50 ([8]; read-out: LC50 IGROV-ET, SRB assay, 48 hours exposure): 24900 nM | TGI A-549 ([9]; SRB assay, 48 hours exposure): 2.09E−06 | GI50 ([9]; read-out: GI50 A-549, SRB assay, 48 hours exposure): 1090 nM | CC50 ([9]; read-out: LC50 A-549, SRB assay, 48 hours exposure): 8290 nM | TGI SKOV-3 ([10]; SRB assay, 48 hours exposure): 2.12E−06 | GI50 ([10]; read-out: GI50 SKOV-3, SRB assay, 48 hours exposure): 700 nM | CC50 ([10]; read-out: LC50 SKOV-3, SRB assay, 48 hours exposure): 24900 nM | TGI DU-145 ([11]; SRB assay, 48 hours exposure): 1.34E−06 | GI50 ([11]; read-out: GI50 DU-145, SRB assay, 48 hours exposure): 336 nM | CC50 ([11]; SRB assay, 48 hours exposure): 24900 nM | TGI SK-BR-3 ([12]; SRB assay, 48 hours exposure): 6.45E−07 | GI50 ([12]; read-out: GI50 SK-BR-3, SRB assay, 48 hours exposure): 251 nM | CC50 ([12]; read-out: LC50 SK-BR-3, SRB assay, 48 hours exposure): 1650 nM
